Experimental data reported in ChEMBL document CHEMBL5360581, “Discovery of a novel dual functional phenylpyrazole-styryl hybrid that induces apoptotic and autophagic cell death in bladder cancer cells” (Eur J Med Chem, 2023).
Activity calls are given as the source filed them.

Experiments:
[1] = tested on: EJ-28; experiment: Induction of morphological changes in human EJ-28 cells assessed as cell rounding at 7.5 uM incubated for 24 to 72 hrs by microscopic analysis; format: functional, cell-based; details: time 24-72 hrs
[2] = tested on: EJ-28; experiment: Cytotoxicity against human EJ-28 cells assessed inhibition of cell growth incubated for 72 hrs by MTT assay; format: functional, cell-based; details: EJ-28, 72 h
[3] = tested on: T-24; experiment: Induction of morphological changes in human T24 cells assessed as intracellular vacuolization at 7.5 uM incubated for 48 hrs by microscopic analysis; format: functional, cell-based
[4] = tested on: EJ-28; experiment: Induction of apoptosis in human EJ-28 cells assessed as upregulation of PARP expression incubated for 24 hrs by Western blotting analysis; format: functional, cell-based
[5] = Selectivity index, ratio of IC50 for cytotoxicity against human NHDF cells to IC50 for cytotoxicity against human EJ-28 cells
[6] = tested on: EJ-28; experiment: Induction of autophagy in human EJ-28 cells assessed as upregulation of Beclin-1 expression at 5 to 12.5 uM incubated for 24 to 72 hrs by Western blot analysis; format: functional, cell-based; details: dose 5-12.5 µM, time 24-72 hrs
[7] = Toxicity in Zebrafish embryo assessed as adverse phenotype at 12.5 to 50 uM administered for 4 hrs post fertilization and measured after 6 days post fertilization; parameters: species or system Danio rerio; details: in vivo, 144 h, dose 12.5-50 µM, time 6 day
[8] = tested on: EJ-28; experiment: Induction of autophagy in human EJ-28 cells assessed as upregulation of Atg16L1 expression at 5 to 12.5 uM incubated for 24 to 72 hrs by Western blot analysis; format: functional, cell-based; details: dose 5-12.5 µM, time 24-72 hrs
[9] = tested on: EJ-28; experiment: Induction of ROS generation in human EJ-28 cells at 1.25 to 10 uM incubated for 48 hrs by DCFDA staining based flow cytometry analysis; format: functional, cell-based; details: dose 1.25-10 µM
[10] = tested on: EJ-28; experiment: Induction of cell cycle arrest in human EJ-28 cells assessed as accumulation of cells at sub-G0/G1 phase at 10 uM incubated for 48 hrs by propidium iodide staining based flow cytometry (reference value: 48%); format: functional
[11] = tested on: EJ-28; experiment: Induction of apoptosis in human EJ-28 cells assessed as upregulation of cleaved caspases-9 expression by Western blotting analysis; format: functional, cell-based; details: time 24-72 hrs
[12] = tested on: EJ-28; experiment: Induction of autophagy in human EJ-28 cells assessed as upregulation of Atg12 expression at 5 to 12.5 uM incubated for 24 to 72 hrs by Western blot analysis; format: functional, cell-based; details: dose 5-12.5 µM, time 24-72 hrs
[13] = tested on: EJ-28; experiment: Induction of apoptosis in human EJ-28 cells assessed as upregulation of PARP expression incubated for 48 to 72 hrs by Western blotting analysis; format: functional, cell-based; details: time 48-72 hrs
[14] = tested on: EJ-28; experiment: Anticancer activity against human EJ-28 cells cultured as 3D spheroids assessed as decrease in spheroid volume at 5 to 20 uM measured upto 5 days by fluorescence microscopic analysis; format: functional, cell-based; details: dose 5-20 µM, time <= 5.0 day
[15] = tested on: EJ-28; experiment: Induction of autophagy in human EJ-28 cells assessed as increase in green fluorescence intensity incubated for 24 hrs by flow cytometry analysis; format: functional, cell-based; details: dose 5-12.5 µM
[16] = tested on: EJ-28; experiment: Induction of apoptosis in human EJ-28 cells assessed as upregulation of Bad expression incubated for 48 hrs by Western blotting analysis; format: functional, cell-based
[17] = Selectivity index, ratio of IC50 for cytotoxicity against human NHDF cells to IC50 for cytotoxicity against human SW620 cells
[18] = tested on: EJ-28; experiment: Induction of autophagy in human EJ-28 cells assessed as downregulation of mTOR expression at 5 to 12.5 uM incubated for 24 hrs by Western blot analysis; format: functional, cell-based; details: dose 5-12.5 µM
[19] = tested on: EJ-28; experiment: Induction of morphological changes in human EJ-28 cells assessed as intracellular vacuolization at 7.5 uM incubated for 24 to 72 hrs by microscopic analysis; format: functional, cell-based; details: time 24-72 hrs
[20] = tested on: SW-620; experiment: Cytotoxicity against human SW620 cells assessed inhibition of cell growth incubated for 72 hrs by MTT assay; format: functional, cell-based; details: SW-620, 72 h
[21] = tested on: EJ-28; experiment: Induction of apoptosis in human EJ-28 cells incubated for 24 to 72 hrs by AnnexinV-FITC/propidium iodide staining based flow cytometry analysis; format: functional, cell-based; details: dose 1.25-10 µM, time 24-72 hrs
[22] = Selectivity index, ratio of IC50 for cytotoxicity against human NHDF cells to IC50 for cytotoxicity against human HT-1080 cells
[23] = tested on: EJ-28; experiment: Induction of autophagy in human EJ-28 cells assessed as upregulation of Atg5 expression at 5 to 12.5 uM incubated for 24 to 72 hrs by Western blot analysis; format: functional, cell-based; details: dose 5-12.5 µM, time 24-72 hrs
[24] = tested on: EJ-28; experiment: Induction of cell cycle arrest in human EJ-28 cells assessed as accumulation of cells at sub-G0/G1 phase at 2.5 uM incubated for 48 hrs by propidium iodide staining based flow cytometry (reference value: 48%); format: functional
[25] = tested on: EJ-28; experiment: Induction of apoptosis in human EJ-28 cells at 1.25 to 10 uM by AnnexinV-FITC/propidium iodide staining based flow cytometry analysis; format: functional, cell-based; details: dose 1.25-10 µM, time 24-72 hrs, TDE = time-dependent effect
[26] = tested on: EJ-28; experiment: Induction of cell cycle arrest in human EJ-28 cells assessed as accumulation of cells at sub-G0/G1 phase at 1.25 uM incubated for 48 hrs by propidium iodide staining based flow cytometry (reference value: 48%); format: functional
[27] = tested on: MCF7; experiment: Antiproliferative activity against human MCF7 cells assessed as reduction in cell viability at 20 uM measured for 72 hrs by MTT assay; format: functional, cell-based
[28] = tested on: EJ-28; experiment: Induction of autophagy in human EJ-28 cells assessed as increase in green fluorescence intensity at 5 to 12.5 uM incubated for 36 to 48 hrs by flow cytometry analysis; format: functional, cell-based; details: dose 5-12.5 µM, time 36-48 hrs
[29] = Cytotoxicity against human SV-HUC-1 cells assessed as reduction in cell viability at 7.5 uM incubated for 72 hrs by MTT assay; format: toxicity, cell-based; details: sv-huc-1, 72 h
[30] = tested on: EJ-28; experiment: Induction of cell cycle arrest in human EJ-28 cells assessed as accumulation of cells at sub-G0/G1 phase at 5 uM incubated for 48 hrs by propidium iodide staining based flow cytometry (reference value: 48%); format: functional
[31] = Cytotoxicity against human NHDF cells assessed inhibition of cell growth incubated for 72 hrs by MTT assay; format: toxicity, cell-based
[32] = Toxicity in Zebrafish embryo assessed as mortality at 12.5 to 50 uM administered for 4 hrs post fertilization and measured after 6 days post fertilization; parameters: species or system Danio rerio; details: in vivo, 144 h, dose 12.5-50 µM, time 6 day
[33] = tested on: EJ-28; experiment: Induction of autophagy in human EJ-28 cells assessed as upregulation of LC3B-I expression at 5 to 12.5 uM incubated for 24 to 72 hrs by Western blot analysis; format: functional, cell-based; details: dose 5-12.5 µM, time 24-72 hrs
[34] = tested on: EJ-28; experiment: Induction of cell cycle arrest in human EJ-28 cells assessed as accumulation of cells at G2/M phase at 10 uM incubated for 48 hrs by propidium iodide staining based flow cytometry (reference value: 20%); format: functional
[35] = tested on: SV-HUC-1; experiment: Induction of morphological changes in human SV-HUC-1 cells at 7.5 uM incubated for 24 to 72 hrs by microscopic analysis; format: functional, cell-based; details: time 24-72 hrs
[36] = tested on: EJ-28; experiment: Induction of cell cycle arrest in human EJ-28 cells assessed as accumulation of cells at G2/M phase at 2.5 uM incubated for 48 hrs by propidium iodide staining based flow cytometry (reference value: 20%); format: functional
[37] = tested on: EJ-28; experiment: Antimigratory activity in human EJ-28 cells at 1.25 to 10 uM measured for 24 hrs by imaging analysis; format: functional, cell-based; details: dose 1.25-10 µM

O=[N+]([O-])c1cccc(/C=C/c2cc(-c3cc(Cl)ccc3O)n(-c3ccccc3)n2)c1
58%: Activity [10] | Activity [30]
2.8 µM: IC50 [2]
17%: Activity [34]
2.6: Ratio IC50 [5] | Ratio IC50 [17] | Ratio IC50 [22]
active: Activity [1] | Activity [3] | Activity [4] | Activity [11] Dose-Dependent Effect | Activity [12] | Activity [14] | Activity [15] Dose-Dependent Effect | Activity [16] | Activity [18] | Activity [19] | Activity [21] Dose-Dependent Effect | Activity [23] | Activity [25] Tde | Activity [27] | Activity [33] | inhibition [37]
10 µM: IC50 [20]
39.7 µM: IC50 at 72 h [31]
inactive: Activity [6] | Activity [8] | Activity [9] | Activity [13] | Activity [28] | Activity [35]
53%: Activity [26]
57%: Activity [24]
15%: Activity [36]
Non-Toxic: Activity [7] | Activity [29] | Activity [32]
